Data: patent US20250098679A1, “HERBICIDAL PYRIDONE DERIVATIVES” (SYNGENTA CROP PROTECTION AG, priority 2021, published 2025)

Columns and labels:
Type in all cases: in vivo
Settings in all cases: evaluated after 13 days
Setaria faberi (SETFA) [1] = experiment: Pre-emergence Test, Setaria faberi (SETFA)
[2] = test system: Echinochloa crus-galli (ECHCG); experiment: Pre-emergence Test, Echinochloa crus-galli (ECHCG)
Zea mays (ZEAMX) [3] = experiment: Pre-emergence Test, Zea mays (ZEAMX)
[4] = test system: Ipomoea hederacea (IPOHE); experiment: Pre-emergence Test, Ipomoea hederacea (IPOHE)
[5] = test system: Amaranthus palmeri (AMAPA); experiment: Pre-emergence Test, Amaranthus palmeri (AMAPA)
[6] = test system: Amaranthus retoflexus (AMARE); experiment: Pre-emergence Test, Amaranthus retoflexus (AMARE)
Setaria faberi (SETFA) [7] = experiment: Post-emergence Test, Setaria faberi (SETFA); set-up: key to percentage damage caused to the plant, SETFA (five-point scale): 5=81-100%, 4=61-80%, 3=41-60%, 2=21-40%, 1=0-20% damage
Outline: (§1)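 Scores are percentage plant damage on a 1–5 scale (1=0-20%, 2=21-40%, 3=41-60%, 4=61-80%, 5=81-100%), read 13 days after treatment. Pots received a spray at 1000 g/ha unless otherwise stated, formulated in acetone/water (50:50) containing 0.5% Tween 20.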

[8] = test system: Echinochloa crus-galli (ECHCG); experiment: Post-emergence Test, Echinochloa crus-galli (ECHCG); set-up: key to percentage damage caused to the plant, ECHCG (five-point scale): 5=81-100%, 4=61-80%, 3=41-60%, 2=21-40%, 1=0-20% damage
Outline: as §1

Zea mays (ZEAMX) [9] = experiment: Post-emergence Test, Zea mays (ZEAMX); set-up: key to percentage damage caused to the plant, ZEAMX (five-point scale): 5=81-100%, 4=61-80%, 3=41-60%, 2=21-40%, 1=0-20% damage
Outline: as §1

[10] = test system: Ipomoea hederacea (IPOHE); experiment: Post-emergence Test, Ipomoea hederacea (IPOHE); set-up: key to percentage damage caused to the plant, IPOHE (five-point scale): 5=81-100%, 4=61-80%, 3=41-60%, 2=21-40%, 1=0-20% damage
Outline: as §1

[11] = test system: Amaranthus palmeri (AMAPA); experiment: Post-emergence Test, Amaranthus palmeri (AMAPA); set-up: key: 5=81-100%, 4=61-80%, 3=41-60%, 2=21-40%, 1=0-20% damage
Outline: as §1

[12] = test system: Amaranthus retoflexus (AMARE); experiment: Post-emergence Test, Amaranthus retoflexus (AMARE); set-up: key to percentage damage caused to the plant, AMARE (five-point scale): 5=81-100%, 4=61-80%, 3=41-60%, 2=21-40%, 1=0-20% damage
Outline: as §1

## CCn1c(Cn2nccc2Cl)cc(=O)c(C(=O)O)c1-c1ccc(Cl)c(Cl)c1 [Compound 80, 6-[(5-chloropyrazol-1-yl)methyl]-2-(3,4-dichlorophenyl)-1-ethyl-4-oxo-pyridine-3-carboxylic acid]
Setaria faberi (SETFA) [1]; 250 g/Ha (*)
  Pre-emergence Test SETFA, percentage damage caused to the plant (five-point scale): 4 (4=61-80%)
Setaria faberi (SETFA) [1]; 1000 g/ha
  Pre-emergence Test SETFA, percentage damage caused to the plant (five-point scale): 5 (5=81-100%)
[2]; 250 g/Ha (*)
  Pre-emergence Test ECHCG, percentage damage caused to the plant (five-point scale): 3 (3=41-60%)
[2]; 1000 g/ha
  Pre-emergence Test ECHCG, percentage damage caused to the plant (five-point scale): 5 (5=81-100%)
Zea mays (ZEAMX) [3]; 250 g/Ha (*)
  Pre-emergence Test ZEAMX, percentage damage caused to the plant (five-point scale): 0
Zea mays (ZEAMX) [3]; 1000 g/ha
  Pre-emergence Test ZEAMX, percentage damage caused to the plant (five-point scale): 0
[4]; 250 g/Ha (*)
  Pre-emergence Test IPOHE, percentage damage caused to the plant (five-point scale): 2 (2=21-40%)
[4]; 1000 g/ha
  Pre-emergence Test IPOHE, percentage damage caused to the plant (five-point scale): 3 (3=41-60%)
[5]; 250 g/Ha (*)
  Pre-emergence Test AMAPA, percentage damage caused to the plant (five-point scale): 1 (1=0-20%)
[5]; 1000 g/ha
  Pre-emergence Test AMAPA, percentage damage caused to the plant (five-point scale): 1 (1=0-20%)
[6]; 250 g/Ha (*)
  Pre-emergence Test AMARE, percentage damage caused to the plant (five-point scale): 0
[6]; 1000 g/ha
  Pre-emergence Test AMARE, percentage damage caused to the plant (five-point scale): 0
Setaria faberi (SETFA) [7]; 250 g/Ha
  percentage damage caused to the plant, SETFA (five-point scale): 3 (3=41-60%)
Setaria faberi (SETFA) [7]; 1000 g/ha
  percentage damage caused to the plant, SETFA (five-point scale): 4 (4=61-80%)
[8]; 250 g/Ha
  percentage damage caused to the plant, ECHCG (five-point scale): 3 (3=41-60%)
[8]; 1000 g/ha
  percentage damage caused to the plant, ECHCG (five-point scale): 4 (4=61-80%)
Zea mays (ZEAMX) [9]; 250 g/Ha
  percentage damage caused to the plant, ZEAMX (five-point scale): 1 (1=0-20%)
Zea mays (ZEAMX) [9]; 1000 g/ha
  percentage damage caused to the plant, ZEAMX (five-point scale): 3 (3=41-60%)
[10]; 250 g/Ha
  percentage damage caused to the plant, IPOHE (five-point scale): 4 (4=61-80%)
[10]; 1000 g/ha
  percentage damage caused to the plant, IPOHE (five-point scale): 3 (3=41-60%)
[11]; 250 g/Ha
  percentage damage caused to the plant, AMAPA (five-point scale): 2 (2=21-40%)
[11]; 1000 g/ha
  percentage damage caused to the plant, AMAPA (five-point scale): 2 (2=21-40%)
[12]; 250 g/Ha
  percentage damage caused to the plant, AMARE (five-point scale): 2 (2=21-40%)
[12]; 1000 g/ha
  percentage damage caused to the plant, AMARE (five-point scale): 2 (2=21-40%)

## CCn1c(Cn2nccc2OC(F)F)cc(=O)c(C(=O)O)c1-c1ccc(Cl)c(Cl)c1 [Compound 85, 2-(3,4-dichlorophenyl)-6-[[5-(difluoromethoxy)pyrazol-1-yl]methyl]-1-ethyl-4-oxo-pyridine-3-carboxylic acid]
Setaria faberi (SETFA) [1]; 250 g/Ha (*)
  Pre-emergence Test SETFA, percentage damage caused to the plant (five-point scale): 3 (3=41-60%)
[2]; 250 g/Ha (*)
  Pre-emergence Test ECHCG, percentage damage caused to the plant (five-point scale): 2 (2=21-40%)
Zea mays (ZEAMX) [3]; 250 g/Ha (*)
  Pre-emergence Test ZEAMX, percentage damage caused to the plant (five-point scale): 0
[4]; 250 g/Ha (*)
  Pre-emergence Test IPOHE, percentage damage caused to the plant (five-point scale): 1 (1=0-20%)
[5]; 250 g/Ha (*)
  Pre-emergence Test AMAPA, percentage damage caused to the plant (five-point scale): 0
[6]; 250 g/Ha (*)
  Pre-emergence Test AMARE, percentage damage caused to the plant (five-point scale): 0
Setaria faberi (SETFA) [7]; 250 g/Ha
  percentage damage caused to the plant, SETFA (five-point scale): 4 (4=61-80%)
[8]; 250 g/Ha
  percentage damage caused to the plant, ECHCG (five-point scale): 2 (2=21-40%)
Zea mays (ZEAMX) [9]; 250 g/Ha
  percentage damage caused to the plant, ZEAMX (five-point scale): 0
[10]; 250 g/Ha
  percentage damage caused to the plant, IPOHE (five-point scale): 4 (4=61-80%)
[11]; 250 g/Ha
  percentage damage caused to the plant, AMAPA (five-point scale): 0
[12]; 250 g/Ha
  percentage damage caused to the plant, AMARE (five-point scale): 0

## CCn1c(Cn2cc(Cl)c(C)n2)cc(=O)c(C(=O)O)c1-c1ccc(Cl)c(Cl)c1 [Compound 89, 6-[(4-chloro-3-methyl-pyrazol-1-yl)methyl]-2-(3,4-dichlorophenyl)-1-ethyl-4-oxo-pyridine-3-carboxylic acid]
Setaria faberi (SETFA) [1]; 250 g/Ha (*)
  Pre-emergence Test SETFA, percentage damage caused to the plant (five-point scale): 3 (3=41-60%)
Setaria faberi (SETFA) [1]; 1000 g/ha
  Pre-emergence Test SETFA, percentage damage caused to the plant (five-point scale): 4 (4=61-80%)
[2]; 250 g/Ha (*)
  Pre-emergence Test ECHCG, percentage damage caused to the plant (five-point scale): 4 (4=61-80%)
[2]; 1000 g/ha
  Pre-emergence Test ECHCG, percentage damage caused to the plant (five-point scale): 5 (5=81-100%)
Zea mays (ZEAMX) [3]; 250 g/Ha (*)
  Pre-emergence Test ZEAMX, percentage damage caused to the plant (five-point scale): 0
Zea mays (ZEAMX) [3]; 1000 g/ha
  Pre-emergence Test ZEAMX, percentage damage caused to the plant (five-point scale): 1 (1=0-20%)
[4]; 250 g/Ha (*)
  Pre-emergence Test IPOHE, percentage damage caused to the plant (five-point scale): 3 (3=41-60%)
[4]; 1000 g/ha
  Pre-emergence Test IPOHE, percentage damage caused to the plant (five-point scale): 4 (4=61-80%)
[5]; 250 g/Ha (*)
  Pre-emergence Test AMAPA, percentage damage caused to the plant (five-point scale): 0
[5]; 1000 g/ha
  Pre-emergence Test AMAPA, percentage damage caused to the plant (five-point scale): 3 (3=41-60%)
[6]; 250 g/Ha (*)
  Pre-emergence Test AMARE, percentage damage caused to the plant (five-point scale): 0
[6]; 1000 g/ha
  Pre-emergence Test AMARE, percentage damage caused to the plant (five-point scale): 2 (2=21-40%)
Setaria faberi (SETFA) [7]; 250 g/Ha
  percentage damage caused to the plant, SETFA (five-point scale): 2 (2=21-40%)
Setaria faberi (SETFA) [7]; 1000 g/ha
  percentage damage caused to the plant, SETFA (five-point scale): 4 (4=61-80%)
[8]; 250 g/Ha
  percentage damage caused to the plant, ECHCG (five-point scale): 4 (4=61-80%)
[8]; 1000 g/ha
  percentage damage caused to the plant, ECHCG (five-point scale): 4 (4=61-80%)
Zea mays (ZEAMX) [9]; 250 g/Ha
  percentage damage caused to the plant, ZEAMX (five-point scale): 0
Zea mays (ZEAMX) [9]; 1000 g/ha
  percentage damage caused to the plant, ZEAMX (five-point scale): 3 (3=41-60%)
[10]; 1000 g/ha
  percentage damage caused to the plant, IPOHE (five-point scale): 3 (3=41-60%)
[11]; 250 g/Ha
  percentage damage caused to the plant, AMAPA (five-point scale): 1 (1=0-20%)
[11]; 1000 g/ha
  percentage damage caused to the plant, AMAPA (five-point scale): 3 (3=41-60%)
[12]; 250 g/Ha
  percentage damage caused to the plant, AMARE (five-point scale): 1 (1=0-20%)
[12]; 1000 g/ha
  percentage damage caused to the plant, AMARE (five-point scale): 1 (1=0-20%)

## CCn1c(Cn2cc(C)cn2)cc(=O)c(C(=O)O)c1-c1ccc(Cl)c(Cl)c1 [Compound 91, 2-(3,4-dichlorophenyl)-1-ethyl-6-[(4-methylpyrazol-1-yl)methyl]-4-oxo-pyridine-3-carboxylic acid]
Setaria faberi (SETFA) [1]; 1000 g/ha
  Pre-emergence Test SETFA, percentage damage caused to the plant (five-point scale): 0
[2]; 1000 g/ha
  Pre-emergence Test ECHCG, percentage damage caused to the plant (five-point scale): 0
Zea mays (ZEAMX) [3]; 1000 g/ha
  Pre-emergence Test ZEAMX, percentage damage caused to the plant (five-point scale): 0
[4]; 1000 g/ha
  Pre-emergence Test IPOHE, percentage damage caused to the plant (five-point scale): 0
[5]; 1000 g/ha
  Pre-emergence Test AMAPA, percentage damage caused to the plant (five-point scale): 1 (1=0-20%)
[6]; 1000 g/ha
  Pre-emergence Test AMARE, percentage damage caused to the plant (five-point scale): 1 (1=0-20%)
Setaria faberi (SETFA) [7]; 250 g/Ha
  percentage damage caused to the plant, SETFA (five-point scale): 0
Setaria faberi (SETFA) [7]; 1000 g/ha
  percentage damage caused to the plant, SETFA (five-point scale): 1 (1=0-20%)
[8]; 250 g/Ha
  percentage damage caused to the plant, ECHCG (five-point scale): 3 (3=41-60%)
[8]; 1000 g/ha
  percentage damage caused to the plant, ECHCG (five-point scale): 1 (1=0-20%)
Zea mays (ZEAMX) [9]; 250 g/Ha
  percentage damage caused to the plant, ZEAMX (five-point scale): 1 (1=0-20%)
Zea mays (ZEAMX) [9]; 1000 g/ha
  percentage damage caused to the plant, ZEAMX (five-point scale): 1 (1=0-20%)
[10]; 250 g/Ha
  percentage damage caused to the plant, IPOHE (five-point scale): 0
[10]; 1000 g/ha
  percentage damage caused to the plant, IPOHE (five-point scale): 3 (3=41-60%)
[11]; 250 g/Ha
  percentage damage caused to the plant, AMAPA (five-point scale): 1 (1=0-20%)
[11]; 1000 g/ha
  percentage damage caused to the plant, AMAPA (five-point scale): 4 (4=61-80%)
[12]; 250 g/Ha
  percentage damage caused to the plant, AMARE (five-point scale): 1 (1=0-20%)
[12]; 1000 g/ha
  percentage damage caused to the plant, AMARE (five-point scale): 2 (2=21-40%)
